In patent publication US6737383B1, “Herbicidal oxadiazolidines” (priority 1999, dated 2004):

Experiments:
corn = experiment: Test B pre/postemergence corn; assay type: in vivo, Zea mays
Summary of the method: (§1)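 Test chemicals in a non-phytotoxic solvent mixture with surfactant were sprayed preemergence onto planted seeds and postemergence onto plants 2 to 18 cm tall (1- to 4-leaf stage). After twelve to sixteen days in a greenhouse, injury was visually rated against untreated controls from 0 (no effect) to 10 (complete control).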

rape = experiment: Test B pre/postemergence rape; assay type: in vivo, Brassica napus
Summary of the method: as §1

soybean = experiment: Test B pre/postemergence soybean; assay type: in vivo, Glycine max
Summary of the method: as §1

cocklebur = experiment: Test B pre/postemergence cocklebur; assay type: in vivo, Xanthium strumarium
Summary of the method: as §1

crabgrass = experiment: Test B pre/postemergence crabgrass; assay type: in vivo, Digitaria sanguinalis
Summary of the method: as §1

pigweed = experiment: Test B pre/postemergence pigweed; assay type: in vivo, Amaranthus retroflexus
Summary of the method: as §1

bamyardgrass = experiment: Test B flood test barnyardgrass; assay type: in vivo, Echinochloa crus-galli
Summary of the method: (§2)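 Flood test on plants grown to the 2-leaf stage; treated plants kept in greenhouse twelve to sixteen days, then visually rated against controls on a 0 (no effect) to 10 (complete control) scale.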

velvetleaf = experiment: Test B pre/postemergence velvetleaf; assay type: in vivo, Abutilon theophrasti
Summary of the method: as §1

surinam grass = experiment: Test B pre/postemergence surinam grass; assay type: in vivo, Brachiaria decumbens
Summary of the method: as §1

wild oat = experiment: Test B pre/postemergence wild oat; assay type: in vivo, Avena fatua
Summary of the method: as §1

purple nutsedge = experiment: Test B pre/postemergence purple nutsedge; assay type: in vivo, Cyperus rotundus
Summary of the method: as §1

sugar beet = experiment: Test B pre/postemergence sugar beet; assay type: in vivo, Beta vulgaris
Summary of the method: as §1

smallflower flatsedge = experiment: Test B flood test smallflower flatsedge; assay type: in vivo, Cyperus difformis
Summary of the method: as §2

bedstraw = experiment: Test B pre/postemergence bedstraw; assay type: in vivo, Galium aparine
Summary of the method: as §1

wheat = experiment: Test B pre/postemergence wheat; assay type: in vivo, Triticum aestivum
Summary of the method: as §1

blackgrass = experiment: Test B pre/postemergence blackgrass; assay type: in vivo, Alopecurus myosuroides
Summary of the method: as §1

[1] = Postemergence, Rate 62 g/ha, scale 0 to 10, 0 is no effect, 10 is complete control
[2] = Postemergence, Rate 250 g/ha, scale 0 to 10, 0 no effect, 10 complete control
[3] = Preemergence, Rate 62 g/ha, scale 0 to 10, 0 is no effect, 10 is complete control
[4] = Preemergence, Rate 125 g/ha, scale 0 to 10 (0 no effect, 10 complete control)
[5] = Preemergence, Rate 250 g/ha, scale of 0 to 10 where 0 is no effect and 10 is complete control
[6] = Preemergence, Rate 500 g/ha, scale 0 (no effect) to 10 (complete control)
[7] = Rate 125 g/ha, Postemergence, scale 0 to 10, 0 no effect, 10 complete control
[8] = Rate 500 g/ha, Postemergence, 0 to 10 scale (0 no effect, 10 complete control)
[9] = Rate 125 g/ha, Postemergence section (flood test species), scale 0 to 10, 0 no effect, 10 complete control
[10] = flood test, listed under Postemergence, Rate 250 g/ha, scale 0 to 10, 0 no effect, 10 complete control

## CC(C)Oc1cc(-n2c(=O)on(C(=O)N(c3ccc(F)cc3)C(C)C)c2=O)c(Cl)cc1Cl [Compound 43]
corn; [1]
  Corn plant response rating: 0
corn; [2]
  Corn plant response rating: 0
corn; [3]
  Plant response rating, Corn: 0
corn; [4]
  Plant response rating, Corn: 0
corn; [5]
  Plant response rating, Corn: 0
corn; [6]
  Corn plant response rating: 0
corn; [7]
  Corn plant response rating: 0
corn; [8]
  Corn plant response rating: 0
rape; [1]
  Rape plant response rating: 0
rape; [2]
  Rape plant response rating: 0
rape; [3]
  Plant response rating, Rape: 0
rape; [4]
  Plant response rating, Rape: 0
rape; [5]
  Plant response rating, Rape: 0
rape; [6]
  Rape plant response rating: 0
rape; [7]
  Rape plant response rating: 0
soybean; [1]
  Soybean plant response rating: 2
soybean; [2]
  Soybean plant response rating: 3
soybean; [3]
  Plant response rating, Soybean: 0
soybean; [4]
  Plant response rating, Soybean: 0
soybean; [5]
  Plant response rating, Soybean: 0
soybean; [6]
  Soybean plant response rating: 0
soybean; [7]
  Soybean plant response rating: 3
cocklebur; [1]
  Cocklebur plant response rating: 0
cocklebur; [2]
  Cocklebur plant response rating: 0
cocklebur; [3]
  Plant response rating, Cocklebur: 0
cocklebur; [4]
  Plant response rating, Cocklebur: 0
cocklebur; [5]
  Plant response rating, Cocklebur: 0
cocklebur; [6]
  Cocklebur plant response rating: 0
cocklebur; [7]
  Cocklebur plant response rating: 0
cocklebur; [8]
  Cocklebur plant response rating: 1
crabgrass; [1]
  Crabgrass plant response rating: 1
crabgrass; [2]
  Crabgrass plant response rating: 2
crabgrass; [3]
  Plant response rating, Crabgrass: 0
crabgrass; [4]
  Plant response rating, Crabgrass: 0
crabgrass; [5]
  Plant response rating, Crabgrass: 0
crabgrass; [6]
  Crabgrass plant response rating: 0
crabgrass; [7]
  Crabgrass plant response rating: 2
crabgrass; [8]
  Crabgrass plant response rating: 2
pigweed; [1]
  Redroot pigweed plant response rating: 1
pigweed; [3]
  Plant response rating, Redroot pigweed: 0
pigweed; [4]
  Plant response rating, Redroot pigweed: 0
pigweed; [5]
  Plant response rating, Redroot pigweed: 0
pigweed; [6]
  Redroot pigweed plant response rating: 4
pigweed; [7]
  Redroot pigweed plant response rating: 2
pigweed; [8]
  Redroot pigweed plant response rating: 6
bamyardgrass; [1]
  Barnyardgrass plant response rating: 0
bamyardgrass; [9]
  Barnyardgrass plant response rating: 0
bamyardgrass; Rate 500 g/ha, Postemergence section of Table B, 0 to 10 scale (0 no effect, 10 complete control)
  Barnyardgrass plant response rating: 0
bamyardgrass; [10]
  Barnyardgrass plant response rating: 0
velvetleaf; [1]
  Velvetleaf plant response rating: 0
velvetleaf; [2]
  Velvetleaf plant response rating: 0
velvetleaf; [3]
  Plant response rating, Velvetleaf: 0
velvetleaf; [4]
  Plant response rating, Velvetleaf: 0
velvetleaf; [5]
  Plant response rating, Velvetleaf: 0
velvetleaf; [6]
  Velvetleaf plant response rating: 0
velvetleaf; [7]
  Velvetleaf plant response rating: 0
Surinam grass; [1]
  B. signalgrass plant response rating: 0
Surinam grass; [2]
  B. signalgrass plant response rating: 0
Surinam grass; [3]
  Plant response rating, B. signalgrass: 0
Surinam grass; [4]
  Plant response rating, B. signalgrass: 0
Surinam grass; [5]
  Plant response rating, B. signalgrass: 0
Surinam grass; [6]
  B. signalgrass plant response rating: 0
Surinam grass; [7]
  B. signalgrass plant response rating: 0
Surinam grass; [8]
  B. signalgrass plant response rating: 0
Wild oat; [1]
  Wild oats plant response rating: 0
Wild oat; [2]
  Wild oats plant response rating: 0
Wild oat; [4]
  Plant response rating, Wild oats: 0
Wild oat; [5]
  Plant response rating, Wild oats: 0
Wild oat; [6]
  Wild oats plant response rating: 0
Wild oat; [7]
  Wild oats plant response rating: 0
Purple nutsedge; [1]
  Nutsedge plant response rating: 0
Purple nutsedge; [2]
  Nutsedge plant response rating: 0
Purple nutsedge; [3]
  Plant response rating, Nutsedge: 0
Purple nutsedge; [4]
  Plant response rating, Nutsedge: 0
Purple nutsedge; [5]
  Plant response rating, Nutsedge: 0
Purple nutsedge; [6]
  Nutsedge plant response rating: 0
Purple nutsedge; [7]
  Nutsedge plant response rating: 0
Purple nutsedge; [8]
  Nutsedge plant response rating: 0
Sugar beet; [1]
  Sugarbeets plant response rating: 0
Sugar beet; [2]
  Sugarbeets plant response rating: 1
Sugar beet; [3]
  Plant response rating, Sugarbeets: 0
Sugar beet; [4]
  Plant response rating, Sugarbeets: 0
Sugar beet; [5]
  Plant response rating, Sugarbeets: 0
Sugar beet; [6]
  Sugarbeets plant response rating: 0
Sugar beet; [7]
  Sugarbeets plant response rating: 1
Smallflower flatsedge; [1]
  S. Flatsedge plant response rating: 0
Smallflower flatsedge; [9]
  S. Flatsedge plant response rating: 0
Smallflower flatsedge; [10]
  S. Flatsedge plant response rating: 0
bedstraw; [1]
  Bedstraw plant response rating: 0
bedstraw; [2]
  Bedstraw plant response rating: 0
bedstraw; [3]
  Plant response rating, Bedstraw: 0
bedstraw; [4]
  Plant response rating, Bedstraw: 0
bedstraw; [5]
  Plant response rating, Bedstraw: 0
bedstraw; [6]
  Bedstraw plant response rating: 2
bedstraw; [7]
  Bedstraw plant response rating: 0
bedstraw; [8]
  Bedstraw plant response rating: 2
wheat; [1]
  Wheat plant response rating: 0
wheat; [2]
  Wheat plant response rating: 0
wheat; [3]
  Plant response rating, Wheat: 0
wheat; [4]
  Plant response rating, Wheat: 0
wheat; [5]
  Plant response rating, Wheat: 0
wheat; [6]
  Wheat plant response rating: 0
wheat; [7]
  Wheat plant response rating: 0
blackgrass; [1]
  Blackgrass plant response rating: 0
blackgrass; [2]
  Blackgrass plant response rating: 0
blackgrass; [3]
  Plant response rating, Blackgrass: 0
blackgrass; [4]
  Plant response rating, Blackgrass: 0
blackgrass; [5]
  Plant response rating, Blackgrass: 0
blackgrass; [6]
  Blackgrass plant response rating: 1
blackgrass; [7]
  Blackgrass plant response rating: 0
blackgrass; [8]
  Blackgrass plant response rating: 4
